Experiment in all cases: drug sensitivity score (DSS2, normalised partial AUC of dose-response, 72 h CellTiter-Glo viability) (DSS (dimensionless)); higher = more sensitive (stronger growth inhibition / cytotoxicity); extreme values may be limits of the assay
One assay has as its system 22Rv1. In a few lines:
(§1)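 Viability of low-passage primary prostate cancer-associated fibroblasts, PF179T, WPMY-1, LNCaP and 22Rv1 cells was read by CellTiter-Glo 2.0 luminescence 72 h after seeding onto compounds pre-dispensed in 384-well plates at five doses over a 10,000-fold range. Readings were scaled between vehicle and positive-control wells. Sensitivity is reported as a drug sensitivity score from BREEZE, namely a partial area under the fitted logistic curve divided by the log of its upper asymptote, where higher means more sensitive.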

Another assay has as its system CAF#1 (primary prostate cancer-associated fibroblasts of myCAF-like type). In a few lines:
as §1

For a further assay, the system named is CAF#2 (primary prostate cancer-associated fibroblasts of iCAF-like type). In a few lines: as §1
A further assay deals with CAF#3 (primary prostate cancer-associated fibroblasts of myCAF-like type). In a few lines: as §1
For a further assay, the system named is CAF#4 (primary prostate cancer-associated fibroblasts of iCAF-like type). In a few lines: as §1
A further assay deals with CAF#5 (primary prostate cancer-associated fibroblasts of myCAF-like type). The method, boiled down:
as §1

A further assay relates to CAF#6 (primary prostate cancer-associated fibroblasts of iCAF-like type). The method, boiled down: as §1
The next assay concerns CAF#7 (primary prostate cancer-associated fibroblasts of myCAF-like type). The method, boiled down:
as §1

The test system of another assay is LNCAP. The method, boiled down:
as §1

For the next assay, the system named is PF179T. In a few lines:
as §1

The subject of another assay is WPMY-1. The method, boiled down:
as §1

The record followed here is the supplement of paper PMC12592484.

Consider `CC/C(=C(\c1ccccc1)c1ccc(OCCN(C)C)cc1)c1ccccc1` [Tamoxifen] (tested concentration range 1-10000 nM), for which the drug sensitivity score in the assay on 22Rv1 is 3.7; in the assay on CAF#1 it was 0.1; with CAF#2, 1.3; with CAF#3, 2.5; with CAF#4 it was 1.1; with CAF#5 it was 2. The drug sensitivity score in the assay on CAF#6 stood at 2.6; in the assay with CAF#7 it was 1.9; in the assay on LNCAP it was 4.1; in the assay on PF179T it was 0; in the assay with WPMY-1, 5.
Regarding `O[C@H]1CC[C@H](Nc2ncc3nc(Nc4c(F)cc(F)cc4F)n([C@H]4CCOC4)c3n2)CC1` [Tanzisertib] (tested concentration range 1-10000 nM), the drug sensitivity score was 0 in the assay with 22Rv1; 0 in the assay on CAF#1; 0 in the assay on CAF#2; 3.3 with CAF#3; 0 in the assay with CAF#4; 0 with CAF#5. The drug sensitivity score in the assay on CAF#6 was found to be 0.2; in the assay with CAF#7 it was 0; in the assay with LNCAP it was 1.3; in the assay with PF179T, 0; in the assay with WPMY-1 it was 0.
Take `COc1cccc2c1c(O)c(C(=O)N(C)c1ccc(C(F)(F)F)cc1)c(=O)n2C` [Tasquinimod] (tested concentration range 1-10000 nM): the drug sensitivity score in the assay on 22Rv1 came out at 0; in the assay on CAF#1 it was 0.3; in the assay with CAF#2, 3.5; in the assay with CAF#3 it was 0; in the assay on CAF#4, 0; in the assay with CAF#5, 3.4. In addition, the drug sensitivity score in the assay with CAF#6 amounted to 4.4; in the assay on CAF#7 it was 5.8; with LNCAP, 0; in the assay on PF179T, 0.4; with WPMY-1, 0.
`CCN(c1cc(-c2ccc(CN3CCOCC3)cc2)cc(C(=O)NCc2c(C)cc(C)[nH]c2=O)c1C)C1CCOCC1` [Tazemetostat] (tested concentration range 1-10000 nM): the drug sensitivity score in the assay with 22Rv1 worked out at 0; in the assay on CAF#1, 1; in the assay on CAF#2, 1.8; in the assay with CAF#3, 1.2; in the assay on CAF#4, 0.4; in the assay on CAF#5 it was 0.9. Besides, the drug sensitivity score is 0.7 in the assay with CAF#6; 0 with CAF#7; 1.9 in the assay with LNCAP; 0 in the assay on PF179T; 0 in the assay on WPMY-1.
Take `Cn1nnc2c(C(N)=O)ncn2c1=O` [Temozolomide] (tested concentration range 10-100000 nM): the drug sensitivity score in the assay on 22Rv1, with CAF#1, with CAF#2, in the assay with CAF#3, in the assay with CAF#4 and in the assay with CAF#5 was 0 throughout. For the same compound, the drug sensitivity score in the assay on CAF#6, in the assay with CAF#7, in the assay on LNCAP, in the assay with PF179T and in the assay on WPMY-1 was 0 throughout.
With `CO[C@H]1C[C@@H]2CC[C@@H](C)[C@@](O)(O2)C(=O)C(=O)N2CCCC[C@H]2C(=O)O[C@H]([C@H](C)C[C@@H]2CC[C@@H](OC(=O)C(C)(CO)CO)[C@H](OC)C2)CC(=O)[C@H](C)/C=C(\C)[C@@H](O)[C@@H](OC)C(=O)[C@H](C)C[C@H](C)/C=C/C=C/C=C/1C` [Temsirolimus] (tested concentration range 0-100 nM), the drug sensitivity score stood at 16.7 with 22Rv1; 10.6 in the assay on CAF#1; 10.1 in the assay with CAF#2; 4 in the assay with CAF#3; 9.9 with CAF#4; 11.8 with CAF#5. Moreover, the drug sensitivity score with CAF#6 came to 5.5; with CAF#7 it was 6; in the assay on LNCAP it was 11; in the assay with PF179T it was 9.8; in the assay with WPMY-1, 6.6.
Regarding `COc1cc([C@@H]2c3cc4c(cc3[C@@H](O[C@@H]3O[C@@H]5CO[C@@H](c6cccs6)O[C@H]5[C@H](O)[C@H]3O)[C@H]3COC(=O)[C@H]23)OCO4)cc(OC)c1O` [Teniposide] (tested concentration range 1-10000 nM), the drug sensitivity score in the assay with 22Rv1, in the assay on CAF#1, in the assay on CAF#2, in the assay on CAF#3, in the assay on CAF#4 and with CAF#5 was 0 throughout. The drug sensitivity score in the assay on CAF#6, with CAF#7, with LNCAP, in the assay on PF179T and in the assay with WPMY-1 was 0 in each case.
For the compound `CN1CCC(COc2cnc(-c3cccc(Cn4nc(-c5cccc(C#N)c5)ccc4=O)c3)nc2)CC1` [Tepotinib] (tested concentration range 0.1-1000 nM), the drug sensitivity score in the assay on 22Rv1 turned out to be 0; in the assay on CAF#1, 0; with CAF#2 it was 3.4; in the assay with CAF#3, 0; with CAF#4, 0.5; in the assay with CAF#5, 3. The drug sensitivity score in the assay on CAF#6 was 0; with CAF#7 it was 0; in the assay with LNCAP it was 0; in the assay on PF179T, 2.4; in the assay on WPMY-1, 0.7.
As to `O=C1CCC(N2C(=O)c3ccccc3C2=O)C(=O)N1` (stereo unspecified) [Thalidomide] (tested concentration range 1-10000 nM), the drug sensitivity score in the assay with 22Rv1, with CAF#1, in the assay on CAF#2, with CAF#3, with CAF#4 and with CAF#5 was 0 throughout. The drug sensitivity score in the assay on CAF#6, with CAF#7, with LNCAP, with PF179T and with WPMY-1 was 0 each time.
On to `Nc1nc2[nH]cnc2c(=S)[nH]1` [Thioguanine] (tested concentration range 1-10000 nM), for which the drug sensitivity score in the assay on 22Rv1 was found to be 8.8; with CAF#1, 1.1; with CAF#2, 3.6; with CAF#3 it was 0.2; in the assay on CAF#4 it was 2.9; with CAF#5, 1.8. Also, the drug sensitivity score was determined as 3.7 in the assay on CAF#6; 4.9 in the assay with CAF#7; 0.4 in the assay on LNCAP; 4.9 with PF179T; 11.8 in the assay on WPMY-1.
Take `O=c1sn(-c2cccc3ccccc23)c(=O)n1Cc1ccccc1` [Tideglusib] (tested concentration range 0.3-3000 nM): the drug sensitivity score in the assay on 22Rv1 is 0; with CAF#1, 0; with CAF#2 it was 0.8; in the assay with CAF#3, 0; in the assay with CAF#4 it was 0; in the assay on CAF#5, 0. Moreover, the drug sensitivity score with CAF#6 turned out to be 2.3; with CAF#7, 1.6; in the assay with LNCAP it was 0; in the assay with PF179T it was 0; with WPMY-1 it was 0.
